Key:
Assay in all cases: relative viability (nuclei count vs DMSO), 5 days (fraction); higher = more cells survive
BGJ398 + AZD7762 = compound: CCN1CCN(c2ccc(Nc3cc(N(C)C(=O)Nc4c(Cl)c(OC)cc(OC)c4Cl)ncn3)cc2)CC1 [BGJ398] + NC(=O)Nc1cc(-c2cccc(F)c2)sc1C(=O)N[C@H]1CCCNC1 [AZD7762] (partner 0.2 µM)
How it was run: (§1)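 Medians of duplicate plates are given as relative viability. That measure is the nuclei count in treated wells divided by the count in vehicle wells. Counts were taken on 4× images of lung cancer cell lines in 1536-well plates, 5 days after pin-tool dosing the day after seeding with one drug alone or a fixed anchor-drug dose plus five library-drug doses (not always all listed) in √10 steps.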

[1] = compound: C1=CC2=NC=CN=C2C=C1/C=C/3\C(=O)NC(=O)S3 + COc1cccc2cc(-c3nc([C@H]4CC[C@H](C(=O)O)CC4)n4ncnc(N)c34)[nH]c12 [OSI-027] (partner 0.5 µM)
How it was run: as §1

BGJ398 + Lapatinib = compound: CCN1CCN(c2ccc(Nc3cc(N(C)C(=O)Nc4c(Cl)c(OC)cc(OC)c4Cl)ncn3)cc2)CC1 [BGJ398] + CS(=O)(=O)CCNCc1ccc(-c2ccc3ncnc(Nc4ccc(OCc5cccc(F)c5)c(Cl)c4)c3c2)o1 [Lapatinib] (partner 2 µM)
How it was run: as §1

BGJ398 + Luminespib = compound: CCN1CCN(c2ccc(Nc3cc(N(C)C(=O)Nc4c(Cl)c(OC)cc(OC)c4Cl)ncn3)cc2)CC1 [BGJ398] + CCNC(=O)c1noc(-c2cc(C(C)C)c(O)cc2O)c1-c1ccc(CN2CCOCC2)cc1 [Luminespib] (partner 0.01 µM)
How it was run: as §1

| Cell Line | relative viability (BGJ398 + AZD7762; first compound 0.01 µM) | relative viability (BGJ398 + AZD7762; first compound 0.03162 µM) | relative viability (BGJ398 + AZD7762; first compound 0.1 µM) | relative viability (BGJ398 + AZD7762; first compound 0.3162 µM) | relative viability (BGJ398 + AZD7762; first compound 1 µM) | relative viability ([1]; first compound 0.02 µM) | relative viability ([1]; first compound 0.2 µM) | relative viability ([1]; first compound 0.6325 µM) | relative viability ([1]; first compound 2 µM) | relative viability (BGJ398 + Lapatinib; first compound 0.01 µM) | relative viability (BGJ398 + Lapatinib; first compound 0.03162 µM) | relative viability (BGJ398 + Lapatinib; first compound 0.1 µM) | relative viability (BGJ398 + Lapatinib; first compound 0.3162 µM) | relative viability (BGJ398 + Lapatinib; first compound 1 µM) | relative viability (BGJ398 + Luminespib; first compound 0.01 µM) | relative viability (BGJ398 + Luminespib; first compound 0.1 µM) | relative viability (BGJ398 + Luminespib; first compound 0.3162 µM) | relative viability (BGJ398 + Luminespib; first compound 1 µM) | relative viability ([1]; first compound 0.06325 µM) | relative viability (BGJ398 + Luminespib; first compound 0.03162 µM) |
| --- | --- | --- | --- | --- | --- | --- | --- | --- | --- | --- | --- | --- | --- | --- | --- | --- | --- | --- | --- | --- |
| HCC-366 | 0.235 | 0.301 | 0.281 | 0.276 | 0.252 | 0.727 | 1.06 | 0.823 | 0.322 | 1.11 | 1.07 | 1.07 | 1.06 | 0.924 | – | – | – | – | – | – |
| HCC-827 | 0.26 | – | 0.212 | 0.121 | 0.256 | 0.771 | 0.765 | 0.741 | 0.779 | 0.244 | – | 0.163 | 0.173 | 0.2 | 0.432 | 0.405 | 0.268 | 0.736 | 0.725 | – |
| HOP-62 | 0.651 | 0.703 | 0.829 | 0.601 | 0.916 | 0.742 | 0.833 | 0.827 | 0.607 | 0.965 | 1.16 | 1.18 | 1.02 | 1.04 | 0.89 | 1.03 | 0.868 | 0.897 | 1.02 | 0.919 |
| IA-LM | – | – | – | – | – | – | – | – | – | 0.864 | 0.742 | 0.846 | 0.704 | 0.758 | – | – | – | – | – | – |
| LCLC-103H | 0.796 | 0.86 | 0.804 | 0.658 | 0.656 | 0.431 | 0.489 | 0.377 | 0.308 | – | – | – | – | – | 0.982 | 1.07 | 0.931 | 0.708 | 0.493 | 0.961 |
| NCI-H441 | – | 1.07 | 1.25 | 0.961 | 1.56 | 0.742 | 0.759 | 0.669 | 0.405 | – | – | – | – | – | 0.453 | 0.318 | 0.383 | 0.371 | 0.695 | 0.346 |
| NCI-H520 | – | – | – | – | – | 0.25 | 0.249 | 0.27 | 0.36 | 0.747 | 0.722 | 0.661 | 0.339 | 0.281 | 0.205 | 0.234 | 0.205 | 0.203 | 0.356 | 0.235 |
| NCI-H522 | 0.864 | 0.686 | 0.812 | 0.836 | 0.853 | 0.706 | 0.675 | 0.717 | 0.562 | – | – | – | – | – | 1.21 | 1.09 | 0.99 | 1.04 | 0.763 | 1.4 |
| NCI-H661 | – | – | – | – | – | 0.785 | 0.682 | 0.621 | 0.584 | 0.501 | 0.595 | 0.473 | 0.457 | 0.49 | 0.926 | 0.937 | 0.851 | 0.852 | 0.796 | 0.936 |
| NCI-H1299 | – | – | – | – | – | – | – | – | – | 0.956 | 0.956 | 0.943 | 0.968 | 0.972 | – | – | – | – | – | – |
| NCI-H1563 | – | – | – | – | – | 0.834 | 0.76 | 0.734 | 0.65 | 0.926 | 1.01 | 0.761 | 0.721 | 0.669 | 0.492 | 0.499 | 0.556 | 0.544 | 0.823 | 0.525 |
| NCI-H1648 | 0.873 | – | 0.759 | 0.55 | 0.387 | 0.238 | 0.313 | 0.246 | 0.261 | – | – | – | – | – | – | – | – | – | – | – |
| NCI-H1650 | – | – | – | – | – | 0.688 | 0.783 | 0.677 | 0.493 | 0.608 | 0.828 | 0.367 | 0.32 | 0.234 | 0.195 | 0.196 | 0.205 | 0.197 | 0.605 | – |
| NCI-H1703 | 0.117 | 0.136 | 0.111 | 0.122 | 0.123 | – | – | – | – | 0.988 | 1.32 | 1.04 | 1.05 | 1.36 | – | – | – | – | – | – |
| NCI-H2009 | – | – | – | – | – | 0.682 | 0.701 | 0.579 | 0.452 | 0.863 | 0.966 | 0.965 | 0.924 | 0.955 | 1.06 | 1.03 | 1.02 | 0.972 | 0.659 | 1.05 |
| NCI-H2023 | – | – | – | – | – | 0.423 | 0.478 | 0.326 | 0.161 | 0.766 | 0.872 | 0.743 | 0.894 | 0.742 | 0.627 | 0.739 | 0.851 | 0.809 | 0.346 | 0.849 |
| NCI-H2228 | – | – | – | – | – | 0.665 | 0.525 | 0.661 | 0.335 | 1.01 | 1.24 | 0.742 | 1 | 1.04 | 0.111 | 0.152 | 0.139 | 0.128 | 0.581 | 0.141 |
| NCI-H2342 | 0.513 | 0.565 | 0.542 | 0.496 | 0.437 | 0.506 | 0.628 | 0.632 | 0.535 | – | – | – | – | – | 0.732 | 0.96 | 0.754 | 0.746 | 0.682 | 0.701 |
| SK-LU-1 | – | – | – | – | – | 0.371 | 0.332 | 0.396 | 0.207 | 0.878 | 1.07 | 0.979 | 0.702 | 0.945 | 0.215 | 0.189 | 0.188 | 0.197 | 0.358 | 0.193 |
| SK-MES-1 | – | – | – | – | – | 0.658 | 0.715 | 0.577 | 0.392 | 0.414 | 0.44 | 0.448 | 0.396 | 0.376 | 0.8 | 0.843 | 0.799 | 0.844 | 0.467 | 0.784 |
| SW 900 | 0.757 | 0.514 | 0.572 | 0.36 | 0.532 | 0.635 | 0.602 | 0.608 | 0.504 | – | – | – | – | – | 0.133 | 0.175 | 0.167 | 0.153 | 0.499 | 0.201 |
| SW 1573 | – | – | – | – | – | 0.63 | 0.725 | 0.532 | 0.312 | 1.03 | 1.12 | 1.08 | 1.02 | 0.984 | 0.323 | 0.209 | 0.226 | 0.278 | 0.946 | 0.242 |
| UMC-11 | – | – | – | – | – | 0.56 | 0.552 | 0.475 | 0.439 | 1.14 | 0.987 | 0.991 | 0.924 | 0.736 | 1.02 | 0.994 | 0.984 | 1.01 | 0.527 | 1.08 |

— the supplement of paper PMC10307832
